The text below walks through data of ChEMBL document CHEMBL1201862, “PubChem BioAssay data set” (2004).

SMILES strings stand for the structures. Calls of active or inactive are those of the source.

Experiment [1] deals with Danio rerio. Description: In Vivo Angiogenesis Dose-Response Confirmation. [Related pubchem assays: 732 (Assay preceding this confirmatory assay.)]. Format: functional, organism-based.
Experiment [2] concerns the target Transthyretin (Homo sapiens, UniProt P02766). Description: Luminescence-based cell-based high throughput dose response assay to identify activators of Transthyretin (TTR) transcription. Format: functional.
Experiment [3] in a line: P. falciparum Dd2 growth inhibitors, dose response, SYBR Green, cherry-picked samples (AID 1159567). It is filed as functional, cell-based.
The nature of experiment [4]: toxicity to human hepatoma HepG2 cells – cell-based, cherry-picked samples, cytotoxicity control, dose response (AID 1159577). Format: functional.
A short description of experiment [5]: growth inhibition of yeast DHODH-expressing 3D7 parasites – SYBR Green, dry powder samples, dose response (AID 1159570).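 Also: parasite growth measured after 72 hours of compound exposure.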 Format: functional, cell-based.
Experiment [6] is described as follows: Dd2 malaria parasite growth inhibition potency – SYBR Green, dry powder samples, dose response (AID 1159566).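 Also: potency for growth inhibition with lower SYBR green DNA signal.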 It is filed as functional, cell-based.
The nature of experiment [7]: Plasmodium falciparum Dd2 Sybr green parasite growth Measured in Cell-Based and Microorganism Combination System Using Plate Reader - 2153-01_Inhibitor_Dose_DryPowder_Activity_Set3. Format: functional.
A short description of experiment [8]: Dd2 parasite growth inhibition in erythrocytes – SYBR Green, dry powder samples, set 9, dose response (AID 1159568). Format: functional, cell-based.
The nature of experiment [9]: toxicity to human HepG2 hepatoma cells – cell-based, plate reader, dry powder samples, cytotoxicity control, dose response (AID 1159569).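 Also: inhibitor potency with signal falling toward the positive control level.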 Format: functional.
The nature of experiment [10]: growth inhibition of PfATP4-mutant resistant parasites – NITD609-resistant line, SYBR Green, dry powder, dose response (AID 1159571).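 Also: parasites synchronized at ring stage by sorbitol before testing.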 Format: functional, cell-based.
The target in experiment [11] is G-protein coupled receptor 183 (Homo sapiens, UniProt P32249). Description: SAR confirmation of small molecule antagonists of the EBI2 receptor via a luminescent beta-arrestin assa. Format: functional.
Chain of G-protein coupled receptor 183 (P32249 whole entry): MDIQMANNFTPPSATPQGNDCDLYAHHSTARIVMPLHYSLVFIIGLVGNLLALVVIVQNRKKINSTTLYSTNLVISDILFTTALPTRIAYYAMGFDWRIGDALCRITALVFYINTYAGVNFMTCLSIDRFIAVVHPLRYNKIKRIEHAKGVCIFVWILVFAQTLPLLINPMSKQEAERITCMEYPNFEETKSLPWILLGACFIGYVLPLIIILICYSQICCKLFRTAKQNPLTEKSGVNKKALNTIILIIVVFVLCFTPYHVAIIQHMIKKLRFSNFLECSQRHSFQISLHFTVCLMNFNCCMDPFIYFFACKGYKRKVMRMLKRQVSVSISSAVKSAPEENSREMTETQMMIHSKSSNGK
The nature of experiment [12]: loss of A549 viability via ATP – cell-based, plate reader, dry powder, set 7, cytotoxicity control, dose response (AID 743318). It is filed as functional.
Experiment [13] can be described thus: cytotoxicity toward Colo320 cells – cell-based, CellTiter-Glo luminescence, IC50, dose response (AID 1117334). Format: functional. The settings on record: COLO 320. On the technique in general: Cellular ATP, detected with luciferase, serves as a proxy for viable cell number.
Experiment [14] can be described thus: cytotoxicity toward HCT116 cells – cell-based, CellTiter-Glo luminescence, IC50, dose response (AID 1117332). Format: functional. The settings on record: HCT-116.
A short description of experiment [15]: SNU-C1 cell viability reduction, dose response, CellTiter-Glo luminescence (AID 1117323). Format: functional, cell-based.
Experiment [16] in a line: RKO cell viability reduction, dose response, CellTiter-Glo luminescence (AID 1117322). Format: functional.
A short description of experiment [17]: HCT116 cell viability decrease, GSK3B pretreatment – CellTiter-Glo, IC50, dose response (AID 1117339). Format: functional. The settings on record: HCT-116.
Experiment [18] can be described thus: CellTiter-Glo luminescence survival assay, SW480 colon tumor line, concentration-response curve, half-maximal inhibitory concentration (AID 1117338). It is filed as functional.
Experiment [19] can be described thus: cytotoxicity toward HT-29 cells – cell-based, CellTiter-Glo luminescence, IC50, dose response (AID 1117330). Format: functional.
Experiment [20] can be described thus: Reduced DLD-1 viability, concentration-response, CellTiter-Glo luminescence (AID 1117352). Format: functional.
Experiment [21] in a line: IC50 of insulin release inhibition, rat insulinoma INS-1E line, 5 mM glucose, cell-based (AID 1117331). It is filed as functional.

By IC50 is commonly meant the point on the concentration scale where inhibition reaches its midpoint. Consider `O=C1Nc2ccc(F)cc2/C1=C1/Nc2ccccc2/C1=N\OCCN1CCNCC1`, for which, in [1], the IC50 is recorded as 13.1 µM (not active).
One may read the EC50 as the concentration that produces a half-maximal response. `Cc1cc(C)n(CC(=O)n2c(C)c(C)c3ccccc32)n1`: the EC50 in [2] was > 167 µM (inactive).
As usually defined, the AC50 is the concentration giving half of the maximal activity seen. Regarding `O=C(Nc1ccc2c(c1)OCO2)N1C[C@@H]2N[C@H](C1)[C@@H]2c1ccc(C=Cc2ccccc2)cc1`, the AC50 in experiment [3] was 5.46 µM (active); in [4] it was 11.2 µM (active).
Take `CO[C@@H]1CN(C)C(=O)c2ccc(NC(=O)NC(C)C)cc2OC[C@@H](C)N(Cc2ccccc2)C[C@H]1C`: the AC50 in experiment [5] was 5.13 µM (active); in experiment [6], 0.299 µM (active); in [7], 1.4 µM (active); in experiment [8] it was 0.493 µM (active); in experiment [9] it was > 100 µM (inactive); in experiment [3], 1.78 µM (active). For the same compound, the AC50 in [10] is 1.9 µM (active).
`O=C(/C=C/c1ccc(F)cc1)N1CCN(S(=O)(=O)c2ccc3ccccc3c2)CC1`: the concentration for half-maximal inhibition (IC50) in experiment [11] was 0.0212 µM (active).
Take `Cc1cccc(OCCn2c(=S)[nH]c3cc(C(F)(F)F)ccc32)c1`: the AC50 in experiment [12] was 36 µM (active).
For the compound `Cc1c(O)cc2c(c1C)O[C@](C)(CCC[C@H](C)CCC[C@H](C)CCCC(C)C)CC2`, the IC50 in [13], in experiment [14], in [15], in experiment [16], in [17] and in experiment [18] was > 20 µM (inactive) throughout. Further, the IC50 in experiment [19] and in experiment [20] was > 20 µM (inactive) throughout.
For `Cc1ccc(O)c([C@H](CCN(C(C)C)C(C)C)c2ccccc2)c1` [TOLTERODINE], the IC50 in [21] was > 33.3 µM (inactive).
